From patent publication US20220106304A1, “Transcription Factor BRN2 Inhibitory Compounds as Therapeutics and Methods for Their Use” (The University of British Columbia, priority 2018, published 2022)

Target: T1, BRN2 (Homo sapiens, UniProt P20265)
T1 sequence (P20265 1-443): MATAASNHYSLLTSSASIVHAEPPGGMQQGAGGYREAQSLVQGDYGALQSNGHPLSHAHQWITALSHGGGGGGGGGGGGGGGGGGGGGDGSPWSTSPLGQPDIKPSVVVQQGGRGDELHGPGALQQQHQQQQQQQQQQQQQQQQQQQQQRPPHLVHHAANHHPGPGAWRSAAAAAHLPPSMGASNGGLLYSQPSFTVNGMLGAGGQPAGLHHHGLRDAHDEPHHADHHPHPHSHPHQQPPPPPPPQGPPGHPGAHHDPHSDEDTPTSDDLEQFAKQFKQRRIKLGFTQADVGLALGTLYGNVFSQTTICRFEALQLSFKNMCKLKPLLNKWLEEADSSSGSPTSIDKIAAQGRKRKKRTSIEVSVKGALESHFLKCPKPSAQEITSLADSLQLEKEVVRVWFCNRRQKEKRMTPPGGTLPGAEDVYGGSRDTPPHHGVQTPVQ
Assay: cell-based
Settings: for cell death (30 μM): cell death = severe toxicity at a low dose; for inhibition at 10 µM: read-out: % BRN2 Inhibition (10 μM), 10 μM compound, 24 hours, 42D^ENZR cells stably expressing BRN2-luciferase reporter; for inhibition at 10 µM / inhibition at 30 µM / % BRN2 Inhibition (10 μM) / % BRN2 Inhibition (30 μM): negative = activation; for inhibition at 30 µM: read-out: % BRN2 Inhibition (30 μM), 30 μM compound, 24 hours, 42D^ENZR cells stably expressing BRN2-luciferase reporter; for % BRN2 Inhibition (10 μM): 10 μM compound; for % BRN2 Inhibition (10 μM) / % BRN2 Inhibition (30 μM): 24 hours, 42D^ENZR cells stably expressing BRN2-luciferase reporter; for % BRN2 Inhibition (30 μM): 30 μM compound
Excerpt: Decreased expression of luciferase protein is validated via western blot to confirm downregulation and avoid false positive molecules that inhibit luciferase protein activity and not BRN2-drive luciferase expression. Molecules are prioritized by their inhibition potency to measure direct interaction with BRN2 in Step 2.
In TABLES 1 and 2, when a single value is mentioned in columns Met Stab % and T½, it refers to compound's stability in MLM and when two values are given they represent HLM/MLM. There is a distinction in TABLES 1 and 2 difference between “Active” and “Specific” or “Specificity”. Compounds are first tested to quantify inhibition of BRN2 transcriptional activity in a luciferase assay to determine “Activity” at […] and 30 μM concentrations. […] Where data is not available “na” is inserted. Where data has yet to be calculated the notation “nc” is used.

Cl.Clc1ccc2cc(-c3csc(C4=CCNCC4)n3)oc2c1 [VPC-18-95, 4-(6-chlorobenzofuran-2-yl)-2-(1,2,3,6-tetrahydropyridin-4-yl)thiazole hydrochloride]
cell death (30 μM): cell death | inhibition at 10 µM: 79.8% | inhibition at 30 µM: 100%

NC(=O)c1ccc2cc(-c3csc(-c4ccco4)n3)oc2c1 [VPC-18-83]
inhibition at 10 µM: -40% | inhibition at 30 µM: -10%

Cn1c(-c2csc(-c3ccccc3)n2)nc2ccc(Cl)cc21 [VPC-18-37, 4-(6-Chloro-1-methyl-1H-benzo[d]imidazol-2-yl)-2-phenylthiazole]
inhibition at 10 µM: -14.5% | inhibition at 30 µM: -58.7%

O=[N+]([O-])c1ccc2cc(-c3csc(-c4ccco4)n3)oc2c1 [VPC-18-52, 2-(Furan-2-yl)-4-(6-nitrobenzofuran-2-yl)thiazole]
inhibition at 10 µM: -15.8% | inhibition at 30 µM: -46%

O=[N+]([O-])c1ccc(-c2nc(-c3cc4ccc(F)cc4o3)cs2)o1 [VPC-18-54, 4-(6-Fluorobenzofuran-2-yl)-2-(5-nitrofuran-2-yl)thiazole]
inhibition at 10 µM: -60% | inhibition at 30 µM: -45%

FC(F)(F)c1cccc2oc(-c3csc(-c4ccco4)n3)cc12 [VPC-18-101]
inhibition at 10 µM: -81% | inhibition at 30 µM: -43%

Cn1c(-c2ccc(-c3ccccc3)o2)nc2ccc(C(F)(F)F)cc21 [VPC-18-61]
inhibition at 10 µM: -97% | inhibition at 30 µM: -92%

Cl.Cn1c(-c2ccc(C3=CCNCC3)o2)nc2ccc(C(F)(F)F)cc21 [VPC-18-70, 1-methyl-2-(5-(1,2,3,6-tetrahydropyridin-4-yl)furan-2-yl)-6-(trifluoromethyl)-1H-benzo[d]imidazole hydrochloride]
cell death (30 μM): cell death | inhibition at 10 µM: 74% | inhibition at 30 µM: 100%

O=[N+]([O-])c1ccc2nc(-c3ccc(-c4ccc(Br)cc4Cl)o3)[nH]c2c1 [VPC-18-40, 2-(5-(4-Bromo-2-chlorophenyl)furan-2-yl)-6-nitro-1H-benzo[d]imidazole]
inhibition at 10 µM: -32.7% | inhibition at 30 µM: -84.1%

Cn1c(-c2ccc(-c3ccccc3F)o2)nc2ccc(C(F)(F)F)cc21 [VPC-18-65]
inhibition at 10 µM: -52% | inhibition at 30 µM: -3%

Cn1c(-c2ccc(N3CCC(F)(F)CC3)o2)nc2ccc(C(F)(F)F)cc21 [VPC-18-79]
inhibition at 10 µM: -12.3% | inhibition at 30 µM: 2.4%

CCn1c(-c2csc(-c3ccccn3)n2)nc2ccccc21 [VPC-18-15]
% BRN2 Inhibition (10 μM): insoluble | % BRN2 Inhibition (30 μM): insoluble

Cn1c(-c2ccc(-c3ccc(F)cc3F)o2)nc2ccc(C(F)(F)F)cc21 [VPC-18-69]
inhibition at 10 µM: -8% | inhibition at 30 µM: 12%

O=[N+]([O-])c1ccc2cc(-c3csc(-c4ccc(F)cc4F)n3)oc2c1 [VPC-18-55, 2-(2,4-Difluorophenyl)-4-(6-nitrobenzofuran-2-yl)thiazole]
inhibition at 10 µM: -9.94% | inhibition at 30 µM: -54%

Cn1c(-c2ccc(-c3ccc(C#N)cc3)o2)nc2ccccc21 [VPC-18-62]
inhibition at 10 µM: -62% | inhibition at 30 µM: -110%

Cn1c(-c2ccc(-c3ccc(Br)cc3Cl)o2)nc2ccc(C(F)(F)F)cc21 [VPC-18-34, 2-(5-(4-Bromo-2-chlorophenyl)furan-2-yl)-1-methyl-6-(trifluoromethyl)-1H-benzo[d]imidazole]
inhibition at 10 µM: -0.86% | inhibition at 30 µM: 46.7%

Cn1c(-c2ccc(N3CC4CC3CO4)o2)nc2ccccc21 (stereo not shown) [VPC-18-50, 5-(5-(1-Methyl-1H-benzo[d]imidazol-2-yl)furan-2-yl)-2-oxa-5-azabicyclo[2.2.1]heptane]
inhibition at 10 µM: -26.6% | inhibition at 30 µM: 27.5%

Cn1c(-c2ccc(-c3cncnc3)o2)nc2ccccc21 [VPC-18-43, 1-Methyl-2-(5-(pyrimidin-5-yl)furan-2-yl)-1H-benzo[d]imidazole]
inhibition at 10 µM: -124% | inhibition at 30 µM: -83%

Cn1c(-c2csc(-c3ccc(Br)cc3F)n2)nc2ccc(F)cc21 [VPC-18-56, 2-(4-Bromo-2-fluorophenyl)-4-(6-fluoro-1-methyl-1H-benzo[d]imidazol-2-yl)thiazole]
% BRN2 Inhibition (10 μM): INACTIVE | % BRN2 Inhibition (30 μM): INACTIVE

O=[N+]([O-])c1ccc(-c2nc(-c3cc4ccccc4o3)cs2)cc1 [VPC-18-44, 4-(Benzofuran-2-yl)-2-(4-nitrophenyl)thiazole]
inhibition at 10 µM: -45% | inhibition at 30 µM: -104%

Cc1c(-c2csc(-c3ccc(Br)cc3F)n2)oc2cc(F)ccc12 [VPC-18-57, 2-(4-Bromo-2-fluorophenyl)-4-(6-fluoro-3-methylbenzofuran-2-yl)thiazole]
% BRN2 Inhibition (10 μM): INACTIVE | % BRN2 Inhibition (30 μM): INACTIVE

Cn1c(-c2ccc(C3=CCNCC3)o2)nc2ccccc21 [VPC-18-67]
inhibition at 10 µM: -38% | inhibition at 30 µM: 8%

CN1CCC(c2ccc(-c3nc4ccccc4n3C)o2)CC1 [VPC-18-68]
inhibition at 10 µM: 11% | inhibition at 30 µM: 14%

Cn1c(-c2ccc(-c3cccnc3)o2)nc2ccc(C(F)(F)F)cc21 [VPC-18-64]
inhibition at 10 µM: -30% | inhibition at 30 µM: -59%

Cn1c(-c2ccc(C3CCCO3)o2)nc2ccccc21 (stereo not shown) [VPC-18-58, 1-Methyl-2-(5-(tetrahydrofuran-2-yl)furan-2-yl)-1H-benzo[d]imidazole]
% BRN2 Inhibition (10 μM): INACTIVE | % BRN2 Inhibition (30 μM): INACTIVE

Cn1c(-c2ccc(-c3ccc(F)cc3F)o2)nc2ccc([N+](=O)[O-])cc21 [VPC-18-39, 2-(5-(2,4-Difluorophenyl)furan-2-yl)-1-methyl-6-nitro-1H-benzo[d]imidazole]
inhibition at 10 µM: -150% | inhibition at 30 µM: -63.1%

Clc1cc(Br)ccc1-c1nc(-c2cc3ccccc3o2)cs1 [VPC-18-59, 4-(Benzofuran-2-yl)-2-(4-bromo-2-chlorophenyl)thiazole]
% BRN2 Inhibition (10 μM): INACTIVE | % BRN2 Inhibition (30 μM): INACTIVE

Cn1c(-c2ccc(-c3ccc(Br)cc3Cl)o2)nc2ccccc21 [VPC-18-60]
inhibition at 10 µM: 13% | inhibition at 30 µM: -37%

Clc1ccc2cc(-c3csc(C4=CCNCC4)n3)oc2c1 [VPC-18-97, 4-(6-chlorobenzofuran-2-yl)-2-(1,2,3,6-tetrahydropyridin-4-yl)thiazole]
% BRN2 Inhibition (10 μM): 65% | % BRN2 Inhibition (30 μM): 99.95%

Cn1c(-c2ccc(-c3ccccc3)o2)nc2ccc([N+](=O)[O-])cc21 [VPC-18-30, 1-Methyl-6-nitro-2-(5-phenylfuran-2-yl)-1H-benzo[d]imidazole]
inhibition at 10 µM: 2.63% | inhibition at 30 µM: 17.4%

O=[N+]([O-])c1ccc(-c2nc(-c3cc4ccccc4o3)cs2)o1 [VPC-18-49, 4-(Benzofuran-2-yl)-2-(5-nitrofuran-2-yl)thiazole]
inhibition at 10 µM: -48% | inhibition at 30 µM: -21%

NS(=O)(=O)c1ccc2nc(-c3csc(-c4ccccc4F)n3)[nH]c2c1 [VPC-18-46, 2-(2-(2-Fluorophenyl)thiazol-4-yl)-1H-benzo[d]imidazole-6-sulfonamide]
inhibition at 10 µM: -69.6% | inhibition at 30 µM: -158%

O=C(NC1(c2ccco2)CC1)c1cc2ccc(C(F)(F)F)cc2o1 [VPC-18-119]
inhibition at 10 µM: 69.9% | inhibition at 30 µM: -25%

c1ccc2oc(-c3csc(N4CC5CC4CO5)n3)cc2c1 (stereo not shown) [VPC-18-38, 5-(4-(Benzofuran-2-yl)thiazol-2-yl)-2-oxa-5-azabicyclo[2.2.1]heptane]
inhibition at 10 µM: -51.2% | inhibition at 30 µM: 67%
